From patent US5559103A, “Bivalent sialyl X saccharides” (Cytel Corporation, priority 1994, dated 1996)
Where “and” joins values, the source holds several entries; their conditions need not be identical. Equal values may be shown once.

Assays:
[1] = molecular target: T1, recombinant soluble E-selectin (Homo sapiens, UniProt P16581); test: Recombinant soluble E-selectin/HL-60 cell adhesion assay; assay type: cell-based; conditions: for Ratio (50 percent binding value for the standard Compound Z divided by the 50 percent binding value for the assayed sample) / IC50 value ratio of SLe^x to that of the compound: E-Selectin Cell Adhesion Assay, HL-60 cells; for Ratio (50 percent binding value for the standard Compound Z divided by the 50 percent binding value for the assayed sample): relative to Compound Z; for IC50 value ratio of SLe^x to that of the compound: relative to SLe^x (Table 1 value divided by 0.76); for inhibition of HL-60 cell adhesion to recombinant soluble E-selectin-coated plates, activity order: FIG. 1, range of inhibitor concentrations (mM)
T1 construct: The 3'-amplimer inserted the termination codon TGA after amino acid number 527 of the mature E-selectin; made in house
T1 sequence (P16581 22-548 limits assumed): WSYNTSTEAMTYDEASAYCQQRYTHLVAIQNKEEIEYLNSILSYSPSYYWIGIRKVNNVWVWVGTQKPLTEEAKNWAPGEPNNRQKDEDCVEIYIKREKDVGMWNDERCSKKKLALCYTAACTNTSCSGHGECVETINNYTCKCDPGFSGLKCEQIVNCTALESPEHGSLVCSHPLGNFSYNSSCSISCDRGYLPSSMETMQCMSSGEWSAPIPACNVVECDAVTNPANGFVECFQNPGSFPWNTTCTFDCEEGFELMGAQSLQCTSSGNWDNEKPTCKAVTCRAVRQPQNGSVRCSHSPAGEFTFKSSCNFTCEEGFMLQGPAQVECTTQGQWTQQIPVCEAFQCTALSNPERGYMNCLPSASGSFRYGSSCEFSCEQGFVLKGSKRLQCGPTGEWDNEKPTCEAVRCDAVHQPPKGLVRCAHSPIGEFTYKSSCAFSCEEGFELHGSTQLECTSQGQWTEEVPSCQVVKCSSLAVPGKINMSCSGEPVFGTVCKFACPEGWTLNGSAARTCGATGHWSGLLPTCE
Description: A modified recombinant soluble E-selectin/HL-60 cell adhesion assay was developed to provide a simple and highly reproducible method with which to compare the E-selectin blocking potential of a bivalent SLe^x saccharide compound. In this assay, recombinant soluble E-selectin (rELAM) is bound to the plastic surface of a 96 well ELISA plate. Dilutions of bivalent SLe^x saccharide compounds to be assayed are added to the wells followed by HL-60 cells which bear the ligand for E-selectin. The cells are allowed to adhere to the E-selectin coated assay plate and the nonadherent cells are removed by washing the plate with an automated plate washer. Bound cells are quantitated by measuring the cellular enzyme myeloperoxidase. The molar concentration of assayed bivalent SLe^x saccharide required to achieve 50 percent inhibition of control adhesion such as that inhibited by free SLe^x or an analog is used to compare the contemplated analogs for potency.
rELAM (recombinant modified ELAM-1) affinity purified, prepared as follows below. Each batch of rELAM was tested functionally to determine the appropriate concentration for use in the assay. A batch was titrated over a range of 1-5 μg/mL using inhibition by Compound Z (described hereinafter) as the standard. Small aliquots were then prepared, quick frozen in a dry-ice acetone bath and stored at -70° C. Each aliquot was opened only one time and then discarded or saved for use in other types of assays.
The soluble form of E-selectin (rELAM or sol-E-selectin) used here was engineered by deleting the transmembrane domain from the cDNA. This recombinant cDNA was cloned into a mammalian expression vector pCDNA1 [a derivative of pCDM8; Seed, Nature, 329:840 (1987)] that contains the chimeric cytomegalovirus/human immunodeficiency virus promoter. When introduced into the adenovirus-transformed human kidney cell line 293, expression of the CMV promoter is efficiently activated by the E1 gene products by a mechanism that has not been fully delineated. The pCDNA1-sol-E-selectin construction was introduced, via calcium phosphate-mediated gene transfer, into 293 cells and a stable cell line expressing high levels of sol-E-selectin was generated. The sol-E-selectinproduced by these cells was purified by immunoaffinity chromatograph on an anti-E-selectin monoclonal antibody Protein-A Sepharose column.
A 1.67 Kbp DNA fragment encoding a truncated structural gene for E-selectin was isolated by polymerase chain reaction (PCR) amplification of cDNA derived from messenger RNA that was isolated from IL-1-activated human endothelial cells. The 5'-amplimer inserted a unique ClaI restriction site 28 nucleotides upstream from the initiation codon of the E-selectin structural gene. The 3'-amplimer inserted the termination codon TGA after amino acid number 527 of the mature E-selectin, followed by a unique XhoI restriction site. The carboxy-terminus of sol-E-selectin is located at the carboxy terminus of the sixth consensus repeat element, thereby deleting the transmembrane domain. The 1.67 Kbp PCR fragment was codigested with ClaI and XhoI restriction endonucleases and sub-cloned into the ClaI and XhoI restriction sites of the cloning vector pBluescript II, providing vector pBS11-sol-E-selectin. Expressed soluble-E-selectin is 527 amino acid residues in length and contains 11 potential N-glycosylation sites.
1. Assays were carried out in 96-well Immunolan 2 plates (Dynatech Laboratories, Inc., Chantilly, Va. catalog #011-0103655). The rELAM (sol-E-selectin) was diluted to the appropriate concentration for the current batch. For these assays, rELAM was used at 2.5 or 3.0 μg/mL in DPBS; with well coating being carried out at room temperature. Using a multichannel pipette, 50μl per well were added to the following wells of one ELISA plate: E1-E6, F1-F6, and G1-G6. DPBS (50μl ) was added to wells H1, H2, and H3 for use as controls. This plate is referred to as the pretest plate. […]

[2] = system: lung injury in rats; conditions: Mulligan et al., cited from earlier work
[3] = system: E-selectin; conditions: monomeric; Nelson et al.; cited from earlier work
[4] = system: P-selectin; conditions: monomeric; Nelson et al.; cited from earlier work
[5] = infusion, cobra venom-infused rats

SMILES | Ratio (50 percent binding value for the standard Compound Z divided by the 50 percent binding value for the assayed sample) [1] | IC50 value ratio of SLe^x to that of the compound [1] | inhibition of HL-60 cell adhesion to recombinant soluble E-selectin-coated plates, activity order [1] | accumulation of neutrophils [2, 5] | lung injury [2, 5] | IC50 ([2]; protection against lung injury in rats, read-out: in vivo IC50 value) [µM] | binding to E-selectin [3] | binding to P-selectin [4]
CCO[C@@H]1O[C@H](CO[C@@H]2O[C@H](CO)[C@@H](O[C@@H]3O[C@H](CO)[C@H](O)[C@H](O[C@]4(C(=O)O)C[C@H](O)[C@@H](NC(C)=O)[C@H]([C@H](O)[C@H](O)CO)O4)[C@H]3O)[C@H](O[C@@H]3O[C@@H](C)[C@@H](O)[C@@H](O)[C@@H]3O)[C@H]2NC(C)=O)[C@H](O)[C@H](O[C@@H]2O[C@H](CO)[C@@H](O[C@@H]3O[C@H](CO)[C@H](O)[C@H](O[C@]4(C(=O)O)C[C@H](O)[C@@H](NC(C)=O)[C@H]([C@H](O)[C@H](O)CO)O4)[C@H]3O)[C@H](O[C@@H]3O[C@@H](C)[C@@H](O)[C@@H](O)[C@@H]3O)[C@H]2NC(C)=O)[C@H]1O [Compound 1, Ethyl 3,6-bis-O-[(ammonium 5-acetamido-3,5-dideoxy-α-D-glycero-D-galacto-2-nonulo-pyranosylonate)-(2→3)-β-D-galactopyranosyl-(1→4)-(α-L-fucopyranosyl-(1→3))-2-acetamido-2-deoxy-β-D-glucopyranosyl]-β-D-galactopyranoside] | 3.8 and 2.67 | 3.5-5 | the most active | – | – | – | – | –
COC(=O)CCCCCO[C@@H]1O[C@H](CO[C@@H]2O[C@H](CO)[C@@H](O[C@@H]3O[C@H](CO)[C@H](O)[C@H](O[C@]4(C(=O)O)C[C@H](O)[C@@H](NC(C)=O)[C@H]([C@H](O)[C@H](O)CO)O4)[C@H]3O)[C@H](O[C@@H]3O[C@@H](C)[C@@H](O)[C@@H](O)[C@@H]3O)[C@H]2NC(C)=O)[C@H](O)[C@H](O)[C@H]1O[C@@H]1O[C@H](CO)[C@@H](O[C@@H]2O[C@H](CO)[C@H](O)[C@H](O[C@]3(C(=O)O)C[C@H](O)[C@@H](NC(C)=O)[C@H]([C@H](O)[C@H](O)CO)O3)[C@H]2O)[C@H](O[C@@H]2O[C@@H](C)[C@@H](O)[C@@H](O)[C@@H]2O)[C@H]1NC(C)=O [Compound 20, 5-Methoxycarbonylpentyl 2,6-bis-O-[(5-acetamido-3,5-dideoxy-α-D-glycero-D-galacto-2-nonulo-pyranosylonic acid)-yl-(2→3)-β-D-galactopyranosyl-(1→4)-(α-L-fucopyranosyl-(1→3))-2-acetamido-2-deoxy-β-D-glucopyranosyl]-β-D-galactopyranoside] | 2.67 | about 3.5 | – | – | – | – | – | –
COC(=O)CCCCCO[C@@H]1O[C@H](CO[C@@H]2O[C@H](CO)[C@@H](O[C@@H]3O[C@H](CO)[C@H](O)[C@H](O[C@]4(C(=O)O)C[C@H](O)[C@@H](NC(C)=O)[C@H]([C@H](O)[C@H](O)CO)O4)[C@H]3O)[C@H](O[C@@H]3O[C@@H](C)[C@@H](O)[C@@H](O)[C@@H]3O)[C@H]2NC(C)=O)[C@H](O[C@@H]2O[C@H](CO)[C@@H](O[C@@H]3O[C@H](CO)[C@H](O)[C@H](O[C@]4(C(=O)O)C[C@H](O)[C@@H](NC(C)=O)[C@H]([C@H](O)[C@H](O)CO)O4)[C@H]3O)[C@H](O[C@@H]3O[C@@H](C)[C@@H](O)[C@@H](O)[C@@H]3O)[C@H]2NC(C)=O)[C@H](O)[C@H]1O [Compound 21, 5-Methoxycarbonylpentyl 4,6-bis-O-[(5-acetamido-3,5-dideoxy-α-D-glycero-D-galacto-2-nonulo-pyranosylonic acid)-yl-(2→3)-β-D-galactopyranosyl-(1→4)-(α-L-fucopyranosyl-(1→3))-2-acetamido-2-deoxy-β-D-glucopyranosyl]-β-D-galactopyranoside] | 1.67 | – | more active than Compound 20 | – | – | – | – | –
CC(=O)N[C@H]1[C@H]([C@H](O)[C@H](O)CO)O[C@@](O[C@H]2[C@@H](O)[C@@H](CO)O[C@@H](O[C@H]3[C@H](O[C@@H]4O[C@@H](C)[C@@H](O)[C@@H](O)[C@@H]4O)[C@@H](NC(C)=O)C(O)O[C@@H]3CO)[C@@H]2O)(C(=O)O)C[C@@H]1O (stereo partly shown) [SLe^x, NeuAcα2→3βGalβ1→4(Fucα1→3)GlcNAc] | 0.76 | – | – | reduced accumulation of neutrophils | reduced lung injury | ~1 | binds weakly | binds weakly
